According to ChEMBL document CHEMBL1121475, “Inhibitors of indoleethylamine N-methyltransferase. Derivatives of 3-methyl-2-thiazolidinimine. In vitro, in vivo, and metabolic studies” (J Med Chem, 1980):

Tested on: Oryctolagus cuniculus
Assay: Percent of 3-Methyl-thiazolidin-2-ylideneamine as administered dose was reported in rabbit 1
Type: ADME, organism-based
Settings: in vivo

Work on `CN1CCS/C1=N\C(=O)CCC(=O)/N=C1/SCCN1C` yielded an Administered dose of 27.9%.
